Experimental data from patent publication US8962615B2, “Cell migration modulating compounds” (University of Dundee, priority 2005, dated 2015).

Test system: human skin fibroblasts
Test: migration of human skin fibroblasts in the 3D collagen gel assay
Format: cell-based
Conditions: relative to control fibroblasts in the absence of test compound, FIG. 3
Source text: The results were plotted and are shown on the graph depicted in FIG. 3 in which compound (IV) is referred to as BDP 1. The data are expressed as fold-stimulation of migration relative to control fibroblasts in the absence of test compound. The range of base-line (control) migration is indicated by the horizontal dotted lines.

COC(=O)CC1Nc2c(cccc2OCCC(C)C)CN(C)C1=O (stereo not shown) [Compound (IV)]
fold-stimulation of migration relative to control fibroblasts: stimulated target cell migration with a bell-shaped dose-response similar in potency and profile to that of IGDS
